Source: ChEMBL document CHEMBL4507282, “Data for DCP probe BI-1950” (2021)

What was measured:
[1] = target: 5-hydroxytryptamine receptor 6 (Homo sapiens) (UniProt P50406); conditions: Compound concentration 10.0 uM
[2] = target: Serine/threonine-protein kinase ICK (Homo sapiens) (UniProt Q9UPZ9); conditions: Compound concentration 1000.0 nM
[3] = target: Serine/threonine-protein kinase BRSK1 (Homo sapiens) (UniProt Q8TDC3); conditions: Compound concentration 1000.0 nM
[4] = target: Ribosomal protein S6 kinase alpha-4 (Homo sapiens) (UniProt O75676); conditions: Compound concentration 1000.0 nM
[5] = target: Cyclin-dependent kinase 3 (Homo sapiens) (UniProt Q00526); conditions: Compound concentration 1000.0 nM
[6] = target: cGMP-dependent protein kinase 1 (Homo sapiens) (UniProt Q13976); conditions: Compound concentration 1000.0 nM
[7] = target: cAMP-dependent protein kinase catalytic subunit beta (Homo sapiens) (UniProt P22694); conditions: Compound concentration 1000.0 nM
[8] = target: Alpha-2C adrenergic receptor (Homo sapiens) (UniProt P18825); conditions: Compound concentration 10.0 uM
[9] = tested on: Epidermal growth factor receptor (Homo sapiens), P00533 [T790M]; conditions: Compound concentration 1000.0 nM
[10] = target: Tyrosine-protein kinase JAK1 (Homo sapiens) (UniProt P23458); conditions: Compound concentration 1000.0 nM
[11] = target: Phosphatidylinositol 4,5-bisphosphate 3-kinase catalytic subunit delta isoform (Homo sapiens) (UniProt O00329); conditions: Compound concentration 1000.0 nM
[12] = target: Tyrosine-protein kinase Lck (Homo sapiens) (UniProt P06239); conditions: Compound concentration 1000.0 nM
[13] = target: Serine/threonine-protein kinase 26 (Homo sapiens) (UniProt Q9P289); conditions: Compound concentration 1000.0 nM
[14] = target: RAC-alpha serine/threonine-protein kinase (Homo sapiens) (UniProt P31749); conditions: Compound concentration 1000.0 nM
[15] = target: Serine/threonine-protein kinase N2 (Homo sapiens) (UniProt Q16513); conditions: Compound concentration 1000.0 nM
[16] = target: Membrane-associated tyrosine- and threonine-specific cdc2-inhibitory kinase (Homo sapiens) (UniProt Q99640); conditions: Compound concentration 1000.0 nM
[17] = tested on: Tyrosine-protein kinase ABL1 (Homo sapiens), P00519 [T315I]; conditions: Compound concentration 1000.0 nM
[18] = target: Death-associated protein kinase 1 (Homo sapiens) (UniProt P53355); conditions: Compound concentration 1000.0 nM
[19] = target: Cyclin-dependent kinase 2 homolog (Plasmodium falciparum (isolate 3D7)) (UniProt P61075); conditions: Compound concentration 1000.0 nM
[20] = target: Serine/threonine-protein kinase pim-2 (Homo sapiens) (UniProt Q9P1W9); conditions: Compound concentration 1000.0 nM
[21] = target: Mitogen-activated protein kinase kinase kinase kinase 2 (Homo sapiens) (UniProt Q12851); conditions: Compound concentration 1000.0 nM
[22] = target: Rhodopsin kinase GRK1 (Homo sapiens) (UniProt Q15835); conditions: Compound concentration 1000.0 nM
[23] = target: Ribosomal protein S6 kinase alpha-1 (Homo sapiens) (UniProt Q15418); conditions: Compound concentration 1000.0 nM
[24] = target: G protein-coupled receptor kinase 3 (Homo sapiens) (UniProt P35626); conditions: Compound concentration 1000.0 nM
[25] = target: Mitogen-activated protein kinase 1 (Homo sapiens) (UniProt P28482); conditions: Compound concentration 1000.0 nM
[26] = target: Ribosomal protein S6 kinase alpha-3 (Homo sapiens) (UniProt P51812); conditions: Compound concentration 1000.0 nM
[27] = target: Phosphatidylinositol 4-phosphate 3-kinase C2 domain-containing subunit beta (Homo sapiens) (UniProt O00750); conditions: Compound concentration 1000.0 nM
[28] = target: Serine/threonine-protein kinase tousled-like 2 (Homo sapiens) (UniProt Q86UE8); conditions: Compound concentration 1000.0 nM
[29] = target: RAC-gamma serine/threonine-protein kinase (Homo sapiens) (UniProt Q9Y243); conditions: Compound concentration 1000.0 nM
[30] = target: Serine/threonine-protein kinase PRP4 homolog (Homo sapiens) (UniProt Q13523); conditions: Compound concentration 1000.0 nM
[31] = target: Serine/threonine-protein kinase PAK 5 (Homo sapiens) (UniProt Q9P286); conditions: Compound concentration 1000.0 nM
[32] = target: Myosin-IIIa (Homo sapiens) (UniProt Q8NEV4); conditions: Compound concentration 1000.0 nM
[33] = target: Interferon-induced, double-stranded RNA-activated protein kinase (Homo sapiens) (UniProt P19525); conditions: Compound concentration 1000.0 nM
[34] = tested on: Phosphatidylinositol 4,5-bisphosphate 3-kinase catalytic subunit alpha isoform (Homo sapiens), P42336 [E545K]; conditions: Compound concentration 1000.0 nM
[35] = target: Macrophage-stimulating protein receptor (Homo sapiens) (UniProt Q04912); conditions: Compound concentration 1000.0 nM
[36] = target: Casein kinase II subunit alpha (Homo sapiens) (UniProt P68400); conditions: Compound concentration 1000.0 nM
[37] = target: ALK tyrosine kinase receptor (Homo sapiens) (UniProt Q9UM73); conditions: Compound concentration 1000.0 nM
[38] = tested on: Serine/threonine-protein kinase B-raf (Homo sapiens), P15056 [V600E]; conditions: Compound concentration 1000.0 nM
[39] = target: Serine/threonine-protein kinase PLK4 (Homo sapiens) (UniProt O00444); conditions: Compound concentration 1000.0 nM
[40] = target: Bone morphogenetic protein receptor type-1B (Homo sapiens) (UniProt O00238); conditions: Compound concentration 1000.0 nM
[41] = tested on: Tyrosine-protein kinase ABL1 (Homo sapiens), P00519 [F317I]; conditions: Compound concentration 1000.0 nM
[42] = target: Peripheral plasma membrane protein CASK (Homo sapiens) (UniProt O14936); conditions: Compound concentration 1000.0 nM
[43] = target: Vascular endothelial growth factor receptor 2 (Homo sapiens) (UniProt P35968); conditions: Compound concentration 1000.0 nM
[44] = tested on: Epidermal growth factor receptor (Homo sapiens), P00533 [G719S]; conditions: Compound concentration 1000.0 nM
[45] = target: Mitogen-activated protein kinase 10 (Homo sapiens) (UniProt P53779); conditions: Compound concentration 1000.0 nM

Chain of Mitogen-activated protein kinase 1 (Homo sapiens) (P28482 whole entry): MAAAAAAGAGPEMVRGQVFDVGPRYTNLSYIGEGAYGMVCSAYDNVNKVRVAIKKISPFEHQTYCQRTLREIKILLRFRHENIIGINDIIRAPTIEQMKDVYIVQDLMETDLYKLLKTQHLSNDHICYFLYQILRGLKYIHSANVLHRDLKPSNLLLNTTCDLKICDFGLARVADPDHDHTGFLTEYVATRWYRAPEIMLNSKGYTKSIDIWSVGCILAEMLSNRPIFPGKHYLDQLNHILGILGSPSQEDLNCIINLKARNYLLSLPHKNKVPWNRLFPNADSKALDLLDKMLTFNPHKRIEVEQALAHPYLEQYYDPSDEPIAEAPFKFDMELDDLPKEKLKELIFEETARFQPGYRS
Chain of Vascular endothelial growth factor receptor 2 (Homo sapiens) (P35968 whole entry): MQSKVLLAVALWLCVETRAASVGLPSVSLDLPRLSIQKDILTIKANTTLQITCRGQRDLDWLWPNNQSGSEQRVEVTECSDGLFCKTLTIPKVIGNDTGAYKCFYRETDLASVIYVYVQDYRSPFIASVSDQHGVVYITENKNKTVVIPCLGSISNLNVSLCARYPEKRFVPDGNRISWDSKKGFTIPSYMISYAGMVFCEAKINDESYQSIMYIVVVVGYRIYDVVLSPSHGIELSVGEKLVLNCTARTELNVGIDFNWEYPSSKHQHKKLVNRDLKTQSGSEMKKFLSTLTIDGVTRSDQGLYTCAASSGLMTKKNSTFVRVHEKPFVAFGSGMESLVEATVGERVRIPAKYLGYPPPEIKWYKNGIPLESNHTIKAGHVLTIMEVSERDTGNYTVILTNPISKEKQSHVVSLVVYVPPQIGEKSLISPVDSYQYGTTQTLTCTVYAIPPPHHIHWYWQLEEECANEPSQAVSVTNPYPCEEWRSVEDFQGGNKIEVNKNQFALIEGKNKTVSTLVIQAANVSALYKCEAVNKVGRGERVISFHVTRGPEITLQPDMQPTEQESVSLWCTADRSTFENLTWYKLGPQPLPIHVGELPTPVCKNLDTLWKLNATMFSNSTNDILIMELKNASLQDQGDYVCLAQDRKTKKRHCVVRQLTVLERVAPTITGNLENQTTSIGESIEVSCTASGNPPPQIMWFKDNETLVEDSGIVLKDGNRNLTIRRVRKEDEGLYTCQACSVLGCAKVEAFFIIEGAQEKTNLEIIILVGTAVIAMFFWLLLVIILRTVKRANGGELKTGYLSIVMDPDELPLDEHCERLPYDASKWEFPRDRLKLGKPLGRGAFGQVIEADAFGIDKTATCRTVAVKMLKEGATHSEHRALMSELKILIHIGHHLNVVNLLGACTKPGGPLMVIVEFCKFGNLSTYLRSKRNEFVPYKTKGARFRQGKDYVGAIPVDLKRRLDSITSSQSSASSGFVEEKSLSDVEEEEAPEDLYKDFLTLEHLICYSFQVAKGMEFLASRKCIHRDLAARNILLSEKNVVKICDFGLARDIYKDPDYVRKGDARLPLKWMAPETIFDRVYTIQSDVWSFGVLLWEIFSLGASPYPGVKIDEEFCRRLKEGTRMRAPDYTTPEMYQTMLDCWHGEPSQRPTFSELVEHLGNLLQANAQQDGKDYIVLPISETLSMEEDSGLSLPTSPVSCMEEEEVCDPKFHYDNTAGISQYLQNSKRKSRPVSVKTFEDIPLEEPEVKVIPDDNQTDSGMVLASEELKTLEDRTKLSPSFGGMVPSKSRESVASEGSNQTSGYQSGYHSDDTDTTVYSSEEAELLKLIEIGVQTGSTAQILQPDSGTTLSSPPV
Chain of Serine/threonine-protein kinase B-raf (Homo sapiens), P15056 [V600E] (P15056 whole entry V600E): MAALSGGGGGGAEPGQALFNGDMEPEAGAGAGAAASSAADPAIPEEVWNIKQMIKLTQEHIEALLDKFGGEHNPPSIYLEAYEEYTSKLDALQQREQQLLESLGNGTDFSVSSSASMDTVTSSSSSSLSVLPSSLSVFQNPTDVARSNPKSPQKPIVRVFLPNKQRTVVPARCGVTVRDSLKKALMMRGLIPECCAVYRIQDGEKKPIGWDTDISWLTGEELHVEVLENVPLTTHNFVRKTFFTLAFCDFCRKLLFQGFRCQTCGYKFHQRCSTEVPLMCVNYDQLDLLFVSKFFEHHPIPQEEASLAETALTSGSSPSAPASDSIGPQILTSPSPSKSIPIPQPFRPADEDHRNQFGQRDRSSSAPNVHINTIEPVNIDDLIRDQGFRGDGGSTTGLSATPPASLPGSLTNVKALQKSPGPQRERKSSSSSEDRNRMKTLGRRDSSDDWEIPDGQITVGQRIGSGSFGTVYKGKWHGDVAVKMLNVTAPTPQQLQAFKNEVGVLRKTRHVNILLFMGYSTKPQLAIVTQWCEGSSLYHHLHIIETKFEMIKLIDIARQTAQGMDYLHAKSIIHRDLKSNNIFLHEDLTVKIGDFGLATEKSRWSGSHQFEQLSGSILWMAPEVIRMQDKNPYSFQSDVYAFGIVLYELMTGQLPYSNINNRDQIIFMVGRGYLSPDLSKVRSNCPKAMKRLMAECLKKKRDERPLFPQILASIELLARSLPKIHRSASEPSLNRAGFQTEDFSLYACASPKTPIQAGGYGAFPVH
Chain of RAC-alpha serine/threonine-protein kinase (Homo sapiens) (P31749 whole entry): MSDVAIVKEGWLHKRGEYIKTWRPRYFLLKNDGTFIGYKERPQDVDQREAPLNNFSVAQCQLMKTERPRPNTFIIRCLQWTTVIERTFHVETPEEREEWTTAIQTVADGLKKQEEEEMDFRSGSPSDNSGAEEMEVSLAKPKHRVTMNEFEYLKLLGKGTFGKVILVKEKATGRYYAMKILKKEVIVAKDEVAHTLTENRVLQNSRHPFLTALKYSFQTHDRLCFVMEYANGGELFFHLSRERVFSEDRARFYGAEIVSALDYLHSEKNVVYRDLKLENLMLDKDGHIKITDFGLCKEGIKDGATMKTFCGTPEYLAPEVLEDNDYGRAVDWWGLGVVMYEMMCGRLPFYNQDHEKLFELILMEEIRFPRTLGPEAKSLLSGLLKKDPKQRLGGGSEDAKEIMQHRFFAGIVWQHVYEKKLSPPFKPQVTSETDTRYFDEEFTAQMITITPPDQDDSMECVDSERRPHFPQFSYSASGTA
Chain of Serine/threonine-protein kinase PLK4 (Homo sapiens) (O00444 whole entry): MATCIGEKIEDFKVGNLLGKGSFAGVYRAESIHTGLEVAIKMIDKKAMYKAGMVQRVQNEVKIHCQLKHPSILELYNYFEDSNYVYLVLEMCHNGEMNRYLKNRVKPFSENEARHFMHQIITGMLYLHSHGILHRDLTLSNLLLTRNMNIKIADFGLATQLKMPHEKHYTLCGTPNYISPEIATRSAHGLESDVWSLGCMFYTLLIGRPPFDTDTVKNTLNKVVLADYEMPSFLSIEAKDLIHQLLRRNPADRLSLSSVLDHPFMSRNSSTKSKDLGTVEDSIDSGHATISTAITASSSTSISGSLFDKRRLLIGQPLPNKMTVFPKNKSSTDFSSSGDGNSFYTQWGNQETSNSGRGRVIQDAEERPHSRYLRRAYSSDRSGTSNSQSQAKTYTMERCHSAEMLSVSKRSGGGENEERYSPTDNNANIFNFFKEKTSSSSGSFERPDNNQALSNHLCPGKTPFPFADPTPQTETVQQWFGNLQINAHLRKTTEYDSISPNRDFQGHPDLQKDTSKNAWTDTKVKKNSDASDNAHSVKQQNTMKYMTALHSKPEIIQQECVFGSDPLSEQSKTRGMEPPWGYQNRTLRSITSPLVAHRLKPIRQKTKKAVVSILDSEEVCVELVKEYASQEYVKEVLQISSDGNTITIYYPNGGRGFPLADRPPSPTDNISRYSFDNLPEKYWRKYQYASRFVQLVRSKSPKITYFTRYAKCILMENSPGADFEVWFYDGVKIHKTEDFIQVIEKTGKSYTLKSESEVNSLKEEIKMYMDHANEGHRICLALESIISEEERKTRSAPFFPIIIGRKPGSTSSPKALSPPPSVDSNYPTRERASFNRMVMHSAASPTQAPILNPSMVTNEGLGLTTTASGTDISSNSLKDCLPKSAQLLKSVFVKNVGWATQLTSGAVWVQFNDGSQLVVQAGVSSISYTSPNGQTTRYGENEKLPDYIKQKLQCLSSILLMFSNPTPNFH
Chain of Cyclin-dependent kinase 3 (Homo sapiens) (Q00526 whole entry, looked up): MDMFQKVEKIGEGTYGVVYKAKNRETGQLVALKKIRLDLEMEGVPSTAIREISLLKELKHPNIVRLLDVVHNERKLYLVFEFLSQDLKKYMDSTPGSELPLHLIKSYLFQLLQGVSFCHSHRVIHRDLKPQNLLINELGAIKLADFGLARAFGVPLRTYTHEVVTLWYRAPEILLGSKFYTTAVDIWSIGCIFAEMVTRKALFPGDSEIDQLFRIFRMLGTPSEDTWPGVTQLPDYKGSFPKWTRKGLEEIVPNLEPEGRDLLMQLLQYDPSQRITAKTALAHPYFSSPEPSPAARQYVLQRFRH
Chain of Tyrosine-protein kinase Lck (Homo sapiens) (P06239 2-509 limits assumed): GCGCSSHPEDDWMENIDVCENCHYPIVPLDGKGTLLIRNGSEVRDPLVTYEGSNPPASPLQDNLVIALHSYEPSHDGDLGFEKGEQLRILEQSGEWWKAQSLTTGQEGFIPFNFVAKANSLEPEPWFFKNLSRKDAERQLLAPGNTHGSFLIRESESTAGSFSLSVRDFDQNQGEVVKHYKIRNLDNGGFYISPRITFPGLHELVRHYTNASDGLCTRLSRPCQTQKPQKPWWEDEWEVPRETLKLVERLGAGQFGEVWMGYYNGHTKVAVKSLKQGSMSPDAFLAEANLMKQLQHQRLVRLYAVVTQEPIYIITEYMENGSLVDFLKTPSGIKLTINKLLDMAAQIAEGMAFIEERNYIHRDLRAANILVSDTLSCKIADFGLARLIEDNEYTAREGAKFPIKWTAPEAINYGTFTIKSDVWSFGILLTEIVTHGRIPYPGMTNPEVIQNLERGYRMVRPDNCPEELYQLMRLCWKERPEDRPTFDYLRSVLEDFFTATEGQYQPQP
Chain of Cyclin-dependent kinase 2 homolog (Plasmodium falciparum (isolate 3D7)) (P61075 whole entry): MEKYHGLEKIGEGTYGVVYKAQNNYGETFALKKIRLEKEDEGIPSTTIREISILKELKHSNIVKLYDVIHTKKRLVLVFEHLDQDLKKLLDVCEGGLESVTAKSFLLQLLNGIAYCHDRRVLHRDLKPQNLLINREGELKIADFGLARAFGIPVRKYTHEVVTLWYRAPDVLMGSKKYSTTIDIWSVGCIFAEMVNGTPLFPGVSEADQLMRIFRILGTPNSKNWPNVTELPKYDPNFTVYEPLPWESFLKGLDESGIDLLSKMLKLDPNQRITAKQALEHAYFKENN

C[C@H](NC(=O)c1cnc2n1[C@](C)(Cc1ccc(C#N)cc1)C(=O)N2c1cc(Cl)c(F)c(Cl)c1)C(=O)NC1(c2ccccn2)CC1 [BI 1950]
inhibition [1]: 6.67% | residual activity [2]: 100% | residual activity [3]: 100% | residual activity [4]: 63% | residual activity [5]: 100% | residual activity [6]: 62% | residual activity [7]: 75% | inhibition [8]: 0.16% | residual activity [9]: 95% | residual activity [10]: 100% | residual activity [11]: 95% | residual activity [12]: 100% | residual activity [13]: 98% | residual activity [14]: 100% | residual activity [15]: 63% | residual activity [16]: 79% | residual activity [17]: 85% | residual activity [18]: 100% | residual activity [19]: 100% | residual activity [20]: 100% | residual activity [21]: 100% | residual activity [22]: 100% | residual activity [23]: 100% | residual activity [24]: 100% | residual activity [25]: 100% | residual activity [26]: 100% | residual activity [27]: 85% | residual activity [28]: 59% | residual activity [29]: 60% | residual activity [30]: 77% | residual activity [31]: 100% | residual activity [32]: 100% | residual activity [33]: 34% | residual activity [34]: 100% | residual activity [35]: 100% | residual activity [36]: 81% | residual activity [37]: 100% | residual activity [38]: 100% | residual activity [39]: 88% | residual activity [40]: 99% | residual activity [41]: 78% | residual activity [42]: 100% | residual activity [43]: 99% | residual activity [44]: 100% | residual activity [45]: 91%

C[C@@]1(Cc2ccc(C#N)cc2)C(=O)N(c2cc(Cl)cc(Cl)c2)c2ncc(C(=O)NC3(c4nc(C5CCC5)no4)CC3)n21 [BI 9446]
inhibition [1]: 16.1% | residual activity [2]: 100% | residual activity [3]: 100% | residual activity [4]: 95% | residual activity [5]: 100% | residual activity [6]: 100% | residual activity [7]: 100% | inhibition [8]: 9.3% | residual activity [9]: 86% | residual activity [10]: 100% | residual activity [11]: 73% | residual activity [12]: 100% | residual activity [13]: 100% | residual activity [14]: 100% | residual activity [15]: 100% | residual activity [16]: 75% | residual activity [17]: 100% | residual activity [18]: 100% | residual activity [19]: 100% | residual activity [20]: 98% | residual activity [21]: 100% | residual activity [22]: 100% | residual activity [23]: 100% | residual activity [24]: 100% | residual activity [25]: 100% | residual activity [26]: 100% | residual activity [27]: 100% | residual activity [28]: 97% | residual activity [29]: 100% | residual activity [30]: 91% | residual activity [31]: 100% | residual activity [32]: 100% | residual activity [33]: 56% | residual activity [34]: 94% | residual activity [35]: 100% | residual activity [36]: 91% | residual activity [37]: 100% | residual activity [38]: 100% | residual activity [39]: 90% | residual activity [40]: 100% | residual activity [41]: 96% | residual activity [42]: 100% | residual activity [43]: 100% | residual activity [44]: 99% | residual activity [45]: 100%
